Test results taken from patent publication US20170029454A1, “NKT CELL LIGANDS AND METHODS OF USE” (THE SCRIPPS RESEARCH INSTITUTE, priority 2013, published 2017).
Read-outs that look alike come from different tables or passages of the source. Values belong to the compound of their own block, whether it stands above or below them.

Legend:
L363 antibody = assay: Surface plasmon resonance: binding of immobilized L363 antibody to CD1d-lipid complexes; conditions: for Affinity Kd (Kdiss/Kass) / Kdiss (L363 binding to CD1d-lipid complex) / Kd: lipid loaded on mCD1d, single cycle SPR, Biacore T200; for Kd: read-out: Affinity Kd (Kdiss/Kass); for binding of L363 to lipid loaded into CD1d: SPR
Protocol: Single cycle analysis was performed on CM5 chips using 250-1000 RUs of immobilized antibody and increasing concentrations of CD1-lipid complexes.
(§1) A Biacore T200 instrument (GE Healthcare, Pittsburgh, Pa.) was used for SPR measurements. Measurements were performed using single cycle protocols to avoid repeated use of regeneration buffer on the immobilized ligands. Immobilization of target antibodies was carried out using classical amine coupling chemistry. 250 to 1,000 RU of antibody was immobilized in each flow cell. All mCD1-lipid complexes were purified after loading to ensure maximal homogeneity and avoid the presence of small amounts of aggregated material. Concentrations ranging from […] were used for each CD1-lipid complex. Flow cell one was used as a negative control and used for subtraction from experimental flow cells. Global analysis of subtracted sensorgrams was carried out using the T200 analysis software.
as §1, with “(available from GE” for “(GE”, “cells (L363 antibody—control antibody).” for “cells.”

DN32.D3 NKT cells = assay: T cell activation assay (IL-2 production) with Vα14 NKT hybridoma DN32.D3; type: cell-based; conditions: for effect on stimulation of NKT cells, FIG. 10 legend: DC3.2 cells treated with recombinant TNFα (legend FIG. 10); for effect on stimulation of NKT cells in the context of TNFα stimulation: DC3.2 cells, TNFα stimulation (FIG. 11); for effect on stimulation of NKT cells by DCs: non-differentiated and LPS-treated DC3.2 cells, 1-deoxygalactonojirimycin 0.5 μM, 1-deoxygluconojirimycin 2.0 μM; for effect of ceramidase inhibition on stimulatory activity towards NKT cells: untreated or LPS-treated DC3.2 cells, 24 h
Protocol: T cell hybridoma cells were cultured in RPMI supplemented with 10% FCS, 2 mM L-glutamine, 20 mM HEPES, and non-essential amino acids. Antigen presentation assays were carried out using 5-20×10^3 DC 3.2 cells or 1×10^5 splenocytes and 4×10^4 T cells per well in 96 well tissue culture plates in triplicates. Cell culture supernatants were collected 24 h later for determination of IL-2 concentrations using an IL-2-dependent NK cell line reporter system. NKT cells have a memory phenotype and hallmarks of “pre-activation” when analyzed ex vivo. In vitro they have been described as being highly autoreactive by their propensity at being activated by syngeneic target cells expressing CD1d molecules (Bendelac et al. 2007, Annual Rev. Immuno., 25:297; Park et al., 1998, J. Immunol., 160:3128). This phenomenon can be illustrated by the activation of Vα14 NKT hybridoma cell DN32.D3 against RBL-CD1, a CD1d positive cell line, that have been stimulated by […] ligands. Stimulation of DN32.D3 cells and TBA.7 cells, a non-Vα14 NKT cell hybridoma, was tested against RBL-CD1 or RBL-CD1 SAP^-/- in which […] expression was knocked down by interfering RNAs. The hybridoma cells were cultured in RPMI supplemented with 10% FCS, 2 mM L-glutamine, 20 mM HEPES, and non-essential amino acids. Antigen presentation assays were carried out using 5-20×10^3 DC 3.2 cells or 1×10^5 splenocytes and 4×10^4 T cells per well in 96-well tissue culture plates in triplicates. Cell culture supernatants were collected 24 h later for determination of IL-2 concentrations using an IL-2-dependent NK cell line reporter system. […] The results are shown in FIGS. 14A-E. A control (open circles) was included for comparison with each inhibitor (filled circles).

ASAHL (NAAA) = target: T1, ASAHL (NAAA) (Homo sapiens, UniProt Q02083); assay: Specific activity of the ASAHL inhibitor; type: biochemical; design: unit not given here
T1 sequence (Q02083 29-359): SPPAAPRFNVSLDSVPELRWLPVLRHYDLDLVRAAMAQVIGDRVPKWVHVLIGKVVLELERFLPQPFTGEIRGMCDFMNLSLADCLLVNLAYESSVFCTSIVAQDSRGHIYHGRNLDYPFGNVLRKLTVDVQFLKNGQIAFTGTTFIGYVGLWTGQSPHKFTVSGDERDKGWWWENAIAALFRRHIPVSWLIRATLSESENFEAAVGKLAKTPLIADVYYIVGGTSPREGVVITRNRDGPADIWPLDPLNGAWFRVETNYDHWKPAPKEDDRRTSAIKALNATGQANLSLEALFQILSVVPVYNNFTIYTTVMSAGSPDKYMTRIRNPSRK

DC3.2 cells = assay: Toxicity of ceramidase inhibitors over a 24 h assay (viability and αGalCer presentation to DN32.D3 cells); type: cell-based
Protocol: In the absence of a suitable animal model, enzyme inhibitors were used to assess the role of ceramidases in the control of NKT ligands. […] In the T-cell activation assays, DC3.2 cells were differentiated with LPS and treated with inhibitors of α-glycosidases (GLAi and/or GAAi), 1-deoxygalactonojirimycin (0.5 μM) and 1-deoxygluconojirimycin (2.0 μM), respectively, or ceramidase inhibitors (NAAA/ASAHLi(27) (20 μM) or AC/ASAH1i, carmofur (1.0 μM) for 24 h and used to stimulate DN32.D3 NKT cells. The results are shown in FIGS. 14A-E. A control (open circles) was included for comparison with each inhibitor (filled circles).

CD1d = target: T2, CD1d (Mus musculus, UniProt P11609); assay: In vitro binding of detergent to CD1d; conditions: in vitro (data not shown)
T2 sequence (P11609 19-297 limits assumed): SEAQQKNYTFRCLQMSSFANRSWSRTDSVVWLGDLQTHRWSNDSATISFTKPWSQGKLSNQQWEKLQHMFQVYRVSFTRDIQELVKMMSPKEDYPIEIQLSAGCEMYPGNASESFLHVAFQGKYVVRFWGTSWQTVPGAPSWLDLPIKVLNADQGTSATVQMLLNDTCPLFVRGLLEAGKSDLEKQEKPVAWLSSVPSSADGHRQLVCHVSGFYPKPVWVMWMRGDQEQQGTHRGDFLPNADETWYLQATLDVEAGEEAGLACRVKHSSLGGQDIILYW
T2 sequence (P01887 21-119 partner): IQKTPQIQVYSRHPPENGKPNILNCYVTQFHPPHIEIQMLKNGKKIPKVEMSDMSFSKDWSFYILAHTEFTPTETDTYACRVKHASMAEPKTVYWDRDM

L317 antibody = assay: Surface plasmon resonance: binding of L317 antibody to CD1d-lipid complexes; conditions: SPR
Protocol: as §1
as §1, with “(available from GE” for “(GE”, “Flow cell one was used as a negative control and used for subtraction from experimental flow cells. Global analysis of subtracted sensorgrams was carried out using the T200 analysis software.” left out

[1] = carmofur 1.0 μM, NAAA/ASAHLi 20 μM

Affinity Kd (Kdiss/Kass) (L363 antibody): N.M.
Compound: CCCCCCCCCCCCCC[C@@H](O)C(O)[C@@H](N)COC1OC(CO)C(O)C(O)C1O (stereo partly drawn)

Compound: OC[C@H]1NC[C@H](O)[C@@H](O)[C@H]1O [1-deoxygalactonojirimycin]
effect on stimulation of NKT cells, FIG. 10 legend (DN32.D3 NKT cells): induced or increased stimulation of NKT cells
effect on stimulation of NKT cells in the context of TNFα stimulation (DN32.D3 NKT cells): did not increase stimulation of NKT cells
effect on stimulation of NKT cells by DCs (DN32.D3 NKT cells): induced or increased a robust stimulation of NKT cells

Compound: OC[C@H]1NC[C@H](O)[C@@H](O)[C@@H]1O [1-deoxygluconojirimycin]
effect on stimulation of NKT cells, FIG. 10 legend (DN32.D3 NKT cells): induced or increased stimulation of NKT cells
effect on stimulation of NKT cells in the context of TNFα stimulation (DN32.D3 NKT cells): did not increase stimulation of NKT cells
effect on stimulation of NKT cells by DCs (DN32.D3 NKT cells): did not result in significant increase in stimulatory activity

Compound: O=C(CCc1ccc(-c2ccccc2)cc1)N1CCCC1 [NAAA inhibitor, 1-(2-Biphenyl-4-yl)ethyl-carbonyl pyrrolidine]
specific activity of the inhibitor of ASAHL (ASAHL (NAAA)): 10-200
effect on stimulatory activity of thymocytes towards DN32.D3 (DN32.D3 NKT cells; thymocytes as APC, NAAA/ASAHLi 20 μM): no effect
effect of ceramidase inhibition on stimulatory activity towards NKT cells (DN32.D3 NKT cells; [1]): very limited but reproducible increase in stimulatory activity

Compound: CCCCCCCCCCCCCC(=O)N[C@H](CO)[C@H](O)c1ccc([N+](=O)[O-])cc1 [NMAPPD, N-[(1R,2R)-2-hydroxy-1-(hydroxymethyl)-2-(4-nitrophenyl)ethyl]-tetradecanamide]
toxicity over a 24 h assay (DC3.2 cells): too much toxicity

binding to CD1d (CD1d): not bind CD1d to any measurable extent
Compound: CCCCCCCCCCCC1(C)OCC(COCCCS(=O)(=O)[O-])O1.[Na+] (stereo not drawn) [Sodium 3-[(2-methyl-2-undecyl-1,3-dioxolan-4-yl)methoxy]-1-propanesulfonate]

Compound: CCCCCCNC(=O)n1cc(F)c(=O)[nH]c1=O [carmofur, 1-Hexylcarbamoyl-5-fluorouracil]
toxicity over a 24 h assay (DC3.2 cells; viability and αGalCer presentation to DN32.D3 cells after treatment): very limited cell toxicity
increase of stimulatory activity of thymocytes towards DN32.D3 (DN32.D3 NKT cells; thymocytes as APC, carmofur 1.0 μM): 2.5 fold
effect of ceramidase inhibition on stimulatory activity towards NKT cells (DN32.D3 NKT cells; [1]): significant increase in stimulatory activity

Kdiss (L363 binding to CD1d-lipid complex) (L363 antibody): 0.05 s⁻¹
Kd (L363 antibody): 350 nM
Compound: CCCCCCCC/C=C\CCCCCCCCCCCCCC(=O)N[C@@H](COC1OC(CO)C(O)C(O)C1O)C(O)/C=C/CCCCCCCCCCCCC (stereo partly drawn) [αGalCer24:1]

Kdiss (L363 binding to CD1d-lipid complex) (L363 antibody): 0.0083 s⁻¹
Kd (L363 antibody): 96.7 nM
Compound: CCCCCCCCCCCCCCCCCCCCCCCCCC(=O)N[C@@H](COC1OC(CO)C(O)C(O)C1O)C(O)[C@H](O)CCCCCCCCCCCCCC (stereo partly drawn) [αGalCer]

Kdiss (L363 binding to CD1d-lipid complex) (L363 antibody): 0.4711 s⁻¹
Kd (L363 antibody): 5020 nM
Compound: CCCCCCCCCCCCC/C=C/C(O)[C@H](COC1OC(CO)C(O)C(O)C1O)NC(=O)CCCCCCCCCCCCCCCCCCCCCCCCC (stereo partly drawn) [αGluCer]

Affinity Kd (Kdiss/Kass) (L363 antibody): N.M.
Compound: CCCCCCCC/C=C\CCCCCCCCCCCCCC(=O)N[C@@H](COC1OC(CO)C(O)C(O)C1O)C(O)/C=C/CCCCCCCCCCCCC (stereo partly drawn) [βGluCer24:1]
stimulatory activity towards DN32.D3 after digestion with recombinant GBA (DN32.D3 NKT cells; GBA 2 h at 37° C., WT splenocytes 10^5 cells/well): Stimulatory activity was not changed

binding of L317 to lipid loaded into CD1d (L317 antibody): no ability to bind
binding of L363 to lipid loaded into CD1d (L363 antibody): no ability to bind
Compound: isoglobotrihexosylceramide [iGb3]

binding of L317 to lipid loaded into CD1d (L317 antibody): no ability to bind
binding of L363 to lipid loaded into CD1d (L363 antibody): no ability to bind
Compound: αGal(α1-2)Galactosylceramide
